Measured values from patent US10654866B2, “Selective estrogen receptor degraders” (Eli Lilly and Company, priority 2018, dated 2020).
Like-named read-outs stand apart in the source and are kept apart here.

What was measured:
[1] = system: MCF7 ESR1 wild type; experiment: Cell proliferation assay in MCF7; format: cell-based, human; conditions: seven days, read-out: Relative IC50 (μM) MCF7 ESR1 wild type
Description: (§1) Seed MCF7 (purchased from ATCC HTB-22) cells at a density of 2,000 cells per well in DMEM phenol red free media 10% FBS (20 μL volume) (charcoal stripped) into a clear bottom 384-well cell culture plate. Plate MCF7-ESRY537N-682 (generated by CRISPR/Cas9 gene editing of ESr1 gene in MCF7 cells, clone #682) in DMEM media supplemented with 10% FBS, and 1% penicillin/streptomycin antibiotics at a density of 1000 cells per well. Incubate the plates at 37° C. and 5% CO2. The following day dose the cells with the test compound. Use an Echo 555 acoustic dispenser to prepare test compound serial dilutions (1:3) in a range from 60 μM to 0.003 μM. Dose the cells with the addition of 5 μL from the serial dilution plate to the cell plate, producing a final DMSO concentration of 0.2% with a final test compound concentration dose range between 20 and 0.001 μM. For the maximum point use media containing 0.2% of DMSO and for the minimum point use fulvestrant diluted at 2 μM final concentrations in the growth media containing 0.2% DMSO. After dosing with the test compound, incubate the cell plates at 37° C. and 5% CO2. Seven days after test compound addition, remove the plates from the incubator and add cold EtOH 96% (65 μL) to each well. […] Seal the plates and incubate 1 hour at room temperature on the bench (preserved from light). Scan the plates with ACUMEN EXPLORER™ [Laser-scanning fluorescence microplate cytometer manufactured by TTP LABTECH LTD].

[2] = target: ERα (Homo sapiens (Human), UniProt P03372); experiment: PRα induction assay in MCF7 cells; format: cell-based; conditions: MCF7 breast cancer cells
Description: The purpose of the following PRα induction assay is to determine whether a test compound has agonistic activity against ERα receptor (an agonist would be expected to activate the receptor).
Culture MCF7 (purchased from ATCC HTB-22) in DMEM media supplemented with 10% FBS, 0.01 mg/mL human insulin 1 and 1% penicillin/streptomycin antibiotics and plate the cells (prior to becoming 70% confluent) in 384-well flat-bottom plates at a density of 4,000 cells per well in 20 μL volume in DMEM phenol red free media containing 10% FBS (charcoal stripped). Incubate the cells overnight in a cell culture incubator (5% CO2, 95% relative humidity at 37° C.) and allow the cells to attach to the plate. The following day, dose the cells with test compound. Use an Echo 555 acoustic dispenser to prepare compound serial dilutions (1:3) in a range from 6 μM to 0.0003 μM. Dose the cells with the addition of the test compound (5 μL) from the serial dilution plate to the cell plate producing a final DMSO concentration of 0.2% with a final concentration of the test compound dose range between 2 and 0.0001 μM. For the maximum point use media containing 0.2% of DMSO and for the minimum point, use fulvestrant diluted at 2 μM final concentrations in the growth media containing 0.2% DMSO. After dosing with the test compound, incubate the cell plates at 37° C. and 5% CO2 for 24 hours. Fix the cells by adding 14% para-formaldehyde (10 μL) for 30 minutes at room temperature. Wash cells once with PBS (20 μL) and incubate with PBS (20 μL) containing 0.5% (v/v) TWEEN® 20 for 1 hour. Wash cells twice with PBS (20 μL) containing 0.05% TWEEN® 20 and block with 3% BSA in PBS containing 0.05% TWEEN® 20 and 0.1% TRITON™ X-100 (20 μL/well) for 1 hour at room temperature. […]
The following day, wash cells with PBS 0.05% TWEEN® 20 (2×20 μL) and incubate with secondary antibody (20 μL/well) (1:1000 dilution, Goat anti-rabbit IgM ALEXA FLUOR™ 488) in PBS 1% BSA for 105 minutes at room temperature. […] Scan plates with ACUMEN EXPLORER™ [Laser-scanning fluorescence microplate cytometer manufactured by TTP LABTECH LTD] to measure PRα. […]

[3] = system: MCF7 ESR1 Y537N mutant cells; experiment: Cell proliferation assay in MCF7-ESR1 Y537N-682; format: cell-based, human; conditions: seven days, read-out: Relative IC50 (μM) MCF7 ESR1 Y537N mutant cells
Description: as §1

[4] = system: MCF7 ER-positive breast cancer model; experiment: In vivo combination studies in MCF7 ER-positive breast cancer xenograft model; parameters: species or system mice; conditions: Example 10 15 mpk; for Difference (Treatment 1 − Treatment 2): Treatment 1 = Vehicle, log10 tumor volume, QD × 42, PO
Excerpt: Otherwise, the statistical conclusion is additive.

Sequence of ERα (P03372 whole entry): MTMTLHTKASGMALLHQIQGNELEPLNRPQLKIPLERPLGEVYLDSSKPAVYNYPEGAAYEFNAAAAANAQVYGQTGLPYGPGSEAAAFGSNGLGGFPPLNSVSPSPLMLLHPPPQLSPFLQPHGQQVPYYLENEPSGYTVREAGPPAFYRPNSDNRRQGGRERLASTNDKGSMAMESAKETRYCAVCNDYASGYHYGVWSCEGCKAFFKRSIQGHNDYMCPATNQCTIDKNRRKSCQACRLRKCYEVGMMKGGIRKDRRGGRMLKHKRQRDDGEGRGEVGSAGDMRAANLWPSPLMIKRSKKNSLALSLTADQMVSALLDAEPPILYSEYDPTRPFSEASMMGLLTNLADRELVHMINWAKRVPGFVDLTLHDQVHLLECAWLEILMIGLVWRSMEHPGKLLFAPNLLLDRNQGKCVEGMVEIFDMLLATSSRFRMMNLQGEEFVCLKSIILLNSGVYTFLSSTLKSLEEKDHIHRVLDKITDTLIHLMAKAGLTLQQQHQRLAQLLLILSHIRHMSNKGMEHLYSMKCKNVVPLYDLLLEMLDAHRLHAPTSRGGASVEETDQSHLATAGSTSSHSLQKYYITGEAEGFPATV

Row | Compound | IC50 ([1]; Homo sapiens, MCF7, […]) [µM] | agonistic activity [2] | IC50 ([3]; Homo sapiens, MCF7, […]) [µM] | IC50 [3] [µM] | Delta T/C % or % Regression ([4]; Abemaciclib 50 mpk, QD × 42, PO (Table 20)) [%] | Delta T/C % or % Regression ([4]; Everolimus 5 mpk, QD × 42, PO (Table 24)) [%] | Delta T/C % or % Regression ([4]; alpelisib 15 mpk (d1-d7), 10 mpk (d8-42), QD × 42, PO (Table 22)) [%] | Difference (Treatment 1 − Treatment 2) ([4]; Abemaciclib 50 mpk) | Difference (Treatment 1 − Treatment 2) ([4]; Everolimus 5 mpk) | Difference (Treatment 1 − Treatment 2) ([4]; alpelisib 15 mpk (d1-d7), 10 mpk (d8-42)) | IC50 [1] [µM]
1 | Oc1ccc2c3c(cnc2c1)-c1ccc(C(F)(F)F)cc1OC3c1ccc(OCCN2CC(CF)C2)cc1 (racemic) [Example 1, 5-(4-{2-[3-(Fluoromethyl)azetidin-1-yl]ethoxy}phenyl)-8-(trifluoromethyl)-5H-[1]benzopyrano[4,3-c]quinolin-2-ol] | 0.00768 ± 0.0126 | no significant agonistic activity | 0.0321 ± 0.0068 | – | – | – | – | – | – | – | –
2 | Oc1ccc2c3c(cnc2c1)-c1ccc(C(F)(F)F)cc1OC3c1ccc(OCCN2CC(CF)C2)cc1 (single isomer, unassigned) [Example 1A, 5-(4-{2-[3-(Fluoromethyl)azetidin-1-yl]ethoxy}phenyl)-8-(trifluoromethyl)-5H-[1]benzopyrano[4,3-c]quinolin-2-ol] | – | no significant agonistic activity | – | 1.86 ± 1.03 | – | – | – | – | – | – | –
3 | Cc1ccc(S(=O)(=O)O)cc1.Oc1ccc2c3c(cnc2c1)-c1ccc(C(F)(F)F)cc1OC3c1ccc(OCCN2CC(CF)C2)cc1 (single isomer, unassigned; isomer 2) [Example 10, 5-(4-{2-[3-(Fluoromethyl)azetidin-1-yl]ethoxy}phenyl)-8-(trifluoromethyl)-5H-[1]benzopyrano[4,3-c]quinolin-2-ol, 4-methylbenzenesulfonic acid, Isomer 2] | – | – | – | 0.0106 | −51 | −51 | −51 | 0.659 | 0.445 | 0.241 | 0.00438
